Reference: EPA's ToxValDB 9.5

What was measured:
Rattus norvegicus [1] = conditions: short-term, duration: 28 days, oral, gavage, M, Sprague-Dawley
Rattus norvegicus [2] = conditions: oral, gavage
[3] = developmental, duration: 15 days, F, Body Weight: 12% decrease in maternal body weight + Developmental: 12-13% decrease in fetal body weights
[4] = developmental, duration: 15 days, F, Body Weight: 31% decrease in maternal body weight gain + Developmental: Decreases in fetal body weight (9%) and delays in hindlimb …
[5] = reproduction developmental, duration: 70 days, Sprague-Dawley, Body Weight: Medullary/papillary tubular and ductal hyperplasia in P0 and F1
[6] = subchronic, duration: 90 days, M, Sprague-Dawley, Hematological: Decreased hemoglobin (4.9%) and hematocrit (5.2%)
[7] = subchronic, duration: 90 days, Sprague-Dawley, Gastrointestinal: Necrosis of individual squamous cells in forestomach and hyperplasia and hyperkeratosis of limiting ridge + Renal: …

## O=S(=O)(O)C(F)(F)C(F)(F)C(F)(F)C(F)(F)F [Perfluorobutanesulfonic acid]
Rattus norvegicus [1]; Clinical chemistry_Free thyroxine
  LOEL: 62.6 mg/kg-day
Rattus norvegicus [1]; Clinical chemistry_Globulin
  LOEL: 62.6 mg/kg-day
Rattus norvegicus [1]; Clinical chemistry_Sorbitol dehydrogenase
  LOEL: 500 mg/kg-day
Rattus norvegicus [1]; Clinical chemistry_Testosterone
  NOEL: 1000 mg/kg-day
Rattus norvegicus [1]; Clinical chemistry_Thyroid stimulating hormone
  NOEL: 1000 mg/kg-day
Rattus norvegicus [1]; Clinical chemistry_Total bile acids
  LOEL: 500 mg/kg-day
Rattus norvegicus [1]; Clinical chemistry_Total bilirubin
  NOEL: 1000 mg/kg-day
Rattus norvegicus [1]; Clinical chemistry_Total protein
  LOEL: 62.6 mg/kg-day
Rattus norvegicus [1]; Clinical chemistry_Total thyroxine
  LOEL: 62.6 mg/kg-day
Rattus norvegicus [1]; Clinical chemistry_Total triiodothyronine
  LOEL: 62.6 mg/kg-day
Rattus norvegicus [1]; Clinical chemistry_Triglycerides
  LOEL: 500 mg/kg-day
Rattus norvegicus [1]; Gene expression_Acox1
  LOEL: 125 mg/kg-day
Rattus norvegicus [1]; Gene expression_Acyl-CoA oxidase
  LOEL: 250 mg/kg-day
Rattus norvegicus [1]; Gene expression_Cyp2b1
  LOEL: 62.6 mg/kg-day
Rattus norvegicus [1]; Gene expression_Cyp2b2
  LOEL: 62.6 mg/kg-day
Rattus norvegicus [1]; Gene expression_Cyp4a1
  LOEL: 62.6 mg/kg-day
Rattus norvegicus [1]; Hematology_Erythrocytes
  LOEL: 125 mg/kg-day
Rattus norvegicus [1]; Hematology_Hematocrit
  LOEL: 125 mg/kg-day
Rattus norvegicus [1]; Hematology_Hemoglobin
  LOEL: 125 mg/kg-day
Rattus norvegicus [1]; Hematology_Leukocytes
  NOEL: 1000 mg/kg-day
Rattus norvegicus [1]; Hematology_Reticulocytes
  LOEL: 125 mg/kg-day
Rattus norvegicus [1]; Hematology_S. neutrophils
  NOEL: 1000 mg/kg-day
Rattus norvegicus [1]; Nonneoplastic effects_Bone marrow - Hypocellularity
  LOEL: 1000 mg/kg-day
Rattus norvegicus [1]; Nonneoplastic effects_Kidney - Papilla, necrosis
  LOEL: 1000 mg/kg-day
Rattus norvegicus [1]; Nonneoplastic effects_Liver - Hepatocyte, cytoplasmic alteration
  LOEL: 500 mg/kg-day
Rattus norvegicus [1]; Nonneoplastic effects_Liver - Hepatocyte, hypertrophy
  LOEL: 125 mg/kg-day
Rattus norvegicus [1]; Nonneoplastic effects_Liver - Hepatocyte, vacuolization cytoplasmic
  NOEL: 1000 mg/kg-day
Rattus norvegicus [1]; Nonneoplastic effects_Liver - Necrosis
  LOEL: 1000 mg/kg-day
Rattus norvegicus [1]; Nonneoplastic effects_Nose - Olfactory epithelium, degeneration
  LOEL: 250 mg/kg-day
Rattus norvegicus [1]; Nonneoplastic effects_Nose - Olfactory epithelium, hyperplasia
  LOEL: 250 mg/kg-day
Rattus norvegicus [1]; Nonneoplastic effects_Nose - Olfactory epithelium, inflammation, suppurative
  LOEL: 1000 mg/kg-day
Rattus norvegicus [1]; Nonneoplastic effects_Nose - Olfactory epithelium, necrosis
  LOEL: 1000 mg/kg-day
Rattus norvegicus [1]; Nonneoplastic effects_Spleen - Extramedullary hematopoiesis, decreased
  NOEL: 1000 mg/kg-day
Rattus norvegicus [1]; Nonneoplastic effects_Stomach, forestomach - Epithelium, hyperplasia
  LOEL: 1000 mg/kg-day
Rattus norvegicus [1]; Nonneoplastic effects_Thymus - Atrophy
  LOEL: 1000 mg/kg-day
Rattus norvegicus [1]; Organ weights_Heart - Absolute
  LOEL: 500 mg/kg-day
Rattus norvegicus [1]; Organ weights_Heart - Relative
  LOEL: 500 mg/kg-day
Rattus norvegicus [1]; Organ weights_Liver - Absolute
  LOEL: 125 mg/kg-day
Rattus norvegicus [1]; Organ weights_Liver - Relative
  LOEL: 62.6 mg/kg-day
Rattus norvegicus [1]; Organ weights_Lung - Absolute
  NOEL: 1000 mg/kg-day
Rattus norvegicus [1]; Organ weights_Lung - Relative
  NOEL: 1000 mg/kg-day
Rattus norvegicus [1]; Organ weights_R. adrenal gland - Absolute
  NOEL: 1000 mg/kg-day
Rattus norvegicus [1]; Organ weights_R. adrenal gland - Relative
  NOEL: 1000 mg/kg-day
Rattus norvegicus [1]; Organ weights_R. kidney - Absolute
  LOEL: 500 mg/kg-day
Rattus norvegicus [1]; Organ weights_R. kidney - Relative
  LOEL: 500 mg/kg-day
Rattus norvegicus [1]; Organ weights_Spleen - Absolute
  NOEL: 1000 mg/kg-day
Rattus norvegicus [1]; Organ weights_Spleen - Relative
  NOEL: 1000 mg/kg-day
Rattus norvegicus [1]; Organ weights_Thymus - Absolute
  LOEL: 500 mg/kg-day
Rattus norvegicus [1]; Organ weights_Thymus - Relative
  LOEL: 500 mg/kg-day
Rattus norvegicus [1]; Reproductive toxicity_Altered sperm parameters
  NOEL: 1000 mg/kg-day
Rattus norvegicus [1]; Survival rates
  LOEL: 1000 mg/kg-day
Rattus norvegicus [1]; body weight
  LOEL: 1000 mg/kg-day
Rattus norvegicus [2]; [3]
  LOAEL: 2000 mg/kg-day
  NOAEL: 1000 mg/kg-day
Rattus norvegicus [2]; [4]
  LOAEL: 1000 mg/kg-day
  NOAEL: 300 mg/kg-day
Rattus norvegicus [2]; reproduction developmental, duration: 70 days, Sprague-Dawley, Body Weight: Increased liver weight in males at ?300 mg/kg/day
  NOAEL: 1000 mg/kg-day
Rattus norvegicus [2]; [5]
  LOAEL: 300 mg/kg-day
  NOAEL: 100 mg/kg-day
Rattus norvegicus [2]; short-term, duration: 28 days, Sprague-Dawley, Hepatic: Increased absolute and relative liver weight at 900 mg/kg/day + Immunotoxicological: No histological alterations + Neurological: No…
  NOAEL: 900 mg/kg-day
Rattus norvegicus [2]; [6]
  LOAEL: 200 mg/kg-day
  NOAEL: 60 mg/kg-day
Rattus norvegicus [2]; subchronic, duration: 90 days, Sprague-Dawley
  NOAEL: 600 mg/kg-day
Rattus norvegicus [2]; [7]
  LOAEL: 600 mg/kg-day
  NOAEL: 200 mg/kg-day
